From the supplement of paper PMC4862054

Assays:
Experiment in all cases: normalised response (% of control), CellTiter-Glo; higher = more viable cells (100 = DMSO, 0 = benzethonium chloride kill control)
Conditions in all cases: incubation time: 72 h
CAL-85-1 = tested on: CAL-85-1
How it was run: (§1)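 Breast cancer cell lines, seeded at 20 µl suspension per well, were incubated for 72 h in 384-well plates containing compound at 5 concentrations. These concentrations rose in 10-fold steps over a 10,000-fold range set for each compound. CellTox Green fluorescence (485/520 nm) was read, then CellTiter-Glo luminescence after 10 min at room temperature, and each plate was normalised to 0.1 % DMSO (100) and a positive kill control (0). Values are normalised signals, each at one concentration.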

SK-BR-3 = tested on: SK-BR-3
How it was run: as §1

MFM-223 = tested on: MFM-223
How it was run: as §1

BT-549 = tested on: BT-549
How it was run: as §1

MDA-MB-468 = tested on: MDA-MB-468
How it was run: as §1

MDA-MB-453 = tested on: MDA-MB-453
How it was run: as §1

BT-474 = tested on: BT-474
How it was run: as §1

MCF-10A = tested on: MCF-10A
How it was run: as §1

HCC1143 = tested on: HCC1143
How it was run: as §1

HCC1937 = tested on: HCC1937
How it was run: as §1

Hs578T = tested on: Hs578T
How it was run: as §1

CAL-51 = tested on: CAL-51
How it was run: as §1

HCC1599 = tested on: HCC1599
How it was run: as §1

MDA-MB-436 = tested on: MDA-MB-436
How it was run: as §1

MDA-MB-231 = tested on: MDA-MB-231
How it was run: as §1

HDQ-P1 = tested on: HDQ-P1
How it was run: as §1

CAL-148 = tested on: CAL-148
How it was run: as §1

DU-4475 = tested on: DU-4475
How it was run: as §1

CAL-120 = tested on: CAL-120
How it was run: as §1

SMILES | normalised response (CAL-85-1) | normalised response (SK-BR-3) | normalised response (MFM-223) | normalised response (BT-549) | normalised response (MDA-MB-468) | normalised response (MDA-MB-453) | normalised response (BT-474) | normalised response (MCF-10A) | normalised response (HCC1143) | normalised response (HCC1937) | normalised response (Hs578T) | normalised response (CAL-51) | normalised response (HCC1599) | normalised response (MDA-MB-436) | normalised response (MDA-MB-231) | normalised response (HDQ-P1) | normalised response (CAL-148) | normalised response (DU-4475) | normalised response (CAL-120)
CC1=C(/C=C/C(C)=C/C=C/C(C)=C/C(=O)O)C(C)(C)CCC1 [Tretinoin] (1 nM) | 98.5% | 107% | 99.2% | 104% | 102% | 97.1% | 102% | 105% | 99.5% | 106% | 102% | 102% | 92% | 107% | 101% | 98.7% | 102% | 101% | 98.7%
CC1=C(/C=C/C(C)=C/C=C/C(C)=C/C(=O)O)C(C)(C)CCC1 [Tretinoin] (10 nM) | 100% | 97% | 103% | 96.9% | 97.7% | 94.7% | 96.6% | 83.7% | 95.8% | 98% | 97.7% | 81% | 102% | 94.1% | 101% | 94.4% | 97.8% | 98.5% | 93.2%
CCCS(=O)(=O)Nc1ccc(F)c(C(=O)c2c[nH]c3ncc(-c4ccc(Cl)cc4)cc23)c1F [Vemurafenib] (10 nM) | 90.9% | 71.8% | 89.8% | 91.2% | 88.2% | 87.6% | 95.5% | 89.2% | 97.6% | 98.8% | 95.8% | 109% | 99.6% | 88.7% | 91.3% | 94.9% | 87.8% | 93.2% | 95.2%
O=C(Cc1ccc(-c2ccc(OCCN3CCOCC3)cc2)cn1)NCc1ccccc1 [KX2-391] (10 nM) | 97.3% | 87.6% | 106% | 102% | 94.6% | 101% | 103% | 107% | 104% | 98.4% | 103% | 73.2% | 100% | 98% | 100% | 98% | 112% | 104% | 101%
COc1cc2c(NC3CCN(C(C)C)CC3)nc(C3CCCCC3)nc2cc1OCCCN1CCCC1 [UNC0638] (10 nM) | 93.3% | 85.9% | 88% | 98.4% | 88.2% | 85.3% | 94.2% | 83% | 102% | 96.6% | 99.7% | 116% | 82.1% | 94.8% | 92.5% | 95.6% | 90.8% | 90.4% | 98%
O=C(O)C(=O)O.[NH-][C@@H]1CCCC[C@H]1[NH-].[Pt+2] [Oxaliplatin] (1 nM) | 91.3% | 90% | 91.2% | 103% | 86.7% | 86.8% | 91.9% | 96.6% | 93.2% | 93.9% | 98.9% | 110% | 95% | 106% | 94.2% | 98.2% | 91.3% | 91.7% | 98.5%
